From ChEMBL document CHEMBL1201862, “PubChem BioAssay data set” (2004)
Activity calls are given as the source filed them.

What was measured:
HEK293 [1] = assay: cells; format: functional, cell-based; conditions: Homo sapiens
[2] = target: Nucleotide-binding oligomerization domain-containing protein 2 (Homo sapiens, UniProt Q9HC29); assay: inhibition of NOD2-driven NF-kB reporter – cell-based, luminescence, uHTS, HEK293 (AID 1566); format: functional
HEK293 [3] = assay: inhibition of NOD1-driven NF-kB reporter – cell-based, luminescence, uHTS, primary screen (AID 1578); format: functional; conditions: Homo sapiens
HEK293 [4] = assay: cells; format: functional, cell-based; conditions: Homo sapiens; remark: listed apart in the source
HEK293 [5] = assay: NOD2 signaling inhibitors in MDP-stimulated cells, cell-based, uHTS, luminescence (AID 2001); format: functional; conditions: Homo sapiens
HEK293 [6] = assay: cells; format: functional, cell-based; conditions: Homo sapiens; remark: listed apart in the source
Aminopeptidase N = target: T1, Aminopeptidase N (Plasmodium falciparum FcB1/Columbia, UniProt O96935); assay: malaria alanyl aminopeptidase activity blockers – biochemical, fluorogenic H-Leu-NHMec substrate, 1536-well (AID 1445); design: species or system Plasmodium falciparum 3D7, 3D7
T1 sequence (O96935 whole entry): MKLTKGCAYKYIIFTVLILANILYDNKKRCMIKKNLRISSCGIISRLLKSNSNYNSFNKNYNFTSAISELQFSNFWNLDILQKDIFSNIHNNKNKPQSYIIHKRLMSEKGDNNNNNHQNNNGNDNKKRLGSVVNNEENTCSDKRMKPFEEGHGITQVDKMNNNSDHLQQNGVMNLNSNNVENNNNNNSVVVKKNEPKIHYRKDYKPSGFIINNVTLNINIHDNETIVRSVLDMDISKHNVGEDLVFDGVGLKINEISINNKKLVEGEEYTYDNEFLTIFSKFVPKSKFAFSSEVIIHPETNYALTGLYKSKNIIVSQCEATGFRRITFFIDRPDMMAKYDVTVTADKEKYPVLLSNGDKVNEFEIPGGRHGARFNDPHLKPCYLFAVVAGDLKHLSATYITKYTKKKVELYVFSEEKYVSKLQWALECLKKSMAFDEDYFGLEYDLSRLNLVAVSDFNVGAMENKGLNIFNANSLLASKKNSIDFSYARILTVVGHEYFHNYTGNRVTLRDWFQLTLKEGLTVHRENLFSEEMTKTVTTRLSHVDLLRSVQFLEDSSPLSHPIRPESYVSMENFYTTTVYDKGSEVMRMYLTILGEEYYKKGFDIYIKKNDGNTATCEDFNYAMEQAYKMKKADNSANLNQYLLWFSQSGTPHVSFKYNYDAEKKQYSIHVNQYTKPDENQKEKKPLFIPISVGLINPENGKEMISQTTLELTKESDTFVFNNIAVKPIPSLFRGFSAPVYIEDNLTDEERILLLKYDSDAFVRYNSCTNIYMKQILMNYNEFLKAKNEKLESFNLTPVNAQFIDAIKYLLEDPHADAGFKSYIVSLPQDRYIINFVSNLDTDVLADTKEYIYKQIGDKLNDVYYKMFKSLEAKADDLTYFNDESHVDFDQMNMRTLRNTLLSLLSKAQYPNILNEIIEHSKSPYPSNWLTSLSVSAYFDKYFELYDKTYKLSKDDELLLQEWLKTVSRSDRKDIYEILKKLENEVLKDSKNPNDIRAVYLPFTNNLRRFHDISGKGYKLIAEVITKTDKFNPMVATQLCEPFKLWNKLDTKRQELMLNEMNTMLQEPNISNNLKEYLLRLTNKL

[7] = target: Intestinal-type alkaline phosphatase (Homo sapiens, UniProt P09923); assay: Dose Response confirmation of uHTS hits from a small molecule inhibitors of human intestinal alkaline phosphatase via a luminescent assay. [Related pubchem assays (depositor defined):AID2544, AID2574]; format: functional
[8] = viability loss in human Jurkat cells – cell-based, luminescence, cytotoxicity control for P. falciparum gametocyte viability project, dose response (AID 1117277); format: functional;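 also: potency reflects loss of cellular ATP meaning fewer viable cells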
[9] = viability inhibitors of stage V gametocytes – luminescence, dose response (AID 1117278); format: functional, cell-based;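 also: gametocytes exposed to compound for 24 hours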
[10] = THP-1 cell cytotoxicity, dose response, cytotoxicity control for non-replicating M. tuberculosis project (AID 489025); format: functional
[11] = target: T2, Short transient receptor potential channel 4 (Mus musculus, UniProt Q9QUQ5); assay: calcium entry via TRPC4 opening agents – cell-based, HEK293 TRPC4/mu-opioid, Fluo-4 calcium, dose response (AID 434937); format: functional
T2 sequence (Q9QUQ5 whole entry): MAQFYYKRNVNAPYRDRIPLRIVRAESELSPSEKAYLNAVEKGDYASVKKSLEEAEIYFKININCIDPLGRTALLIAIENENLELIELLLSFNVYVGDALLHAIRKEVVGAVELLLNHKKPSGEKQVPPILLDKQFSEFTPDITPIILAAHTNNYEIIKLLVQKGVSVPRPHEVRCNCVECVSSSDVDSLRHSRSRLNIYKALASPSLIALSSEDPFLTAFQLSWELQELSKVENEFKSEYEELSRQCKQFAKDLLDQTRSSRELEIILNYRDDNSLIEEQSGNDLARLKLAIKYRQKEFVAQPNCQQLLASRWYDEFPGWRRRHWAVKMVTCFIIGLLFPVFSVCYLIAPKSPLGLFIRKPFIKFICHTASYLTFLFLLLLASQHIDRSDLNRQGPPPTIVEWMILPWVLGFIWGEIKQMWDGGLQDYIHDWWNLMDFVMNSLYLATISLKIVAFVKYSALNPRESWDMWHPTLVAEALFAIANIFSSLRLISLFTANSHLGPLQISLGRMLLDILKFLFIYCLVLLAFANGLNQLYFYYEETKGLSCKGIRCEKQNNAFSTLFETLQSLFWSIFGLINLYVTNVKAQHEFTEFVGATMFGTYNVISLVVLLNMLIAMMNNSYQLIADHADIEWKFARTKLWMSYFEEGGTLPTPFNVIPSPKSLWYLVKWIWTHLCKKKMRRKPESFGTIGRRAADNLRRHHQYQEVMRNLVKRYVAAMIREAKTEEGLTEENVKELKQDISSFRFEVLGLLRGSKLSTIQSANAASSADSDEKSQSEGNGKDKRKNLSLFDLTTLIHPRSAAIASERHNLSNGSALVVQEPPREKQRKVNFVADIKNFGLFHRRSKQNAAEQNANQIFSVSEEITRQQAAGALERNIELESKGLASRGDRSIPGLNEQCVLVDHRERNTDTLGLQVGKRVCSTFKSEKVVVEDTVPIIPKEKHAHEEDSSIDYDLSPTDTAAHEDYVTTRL

Cytochrome P450 2C9 = Cytochrome P450 2C9 (Homo sapiens, UniProt P11712)
Bcl-2-like protein 10 = target: T3, Bcl-2-like protein 10 (Homo sapiens, UniProt Q9HD36); assay: Bcl-B/TR3 peptide binding disruption – biochemical, fluorescence polarization, FITC-TR3 peptide, selectivity assay for Bfl-1 inhibitor project, primary screen (AID 748);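 also: fluorescence polarization from a fluorescein-labelled TR3 peptide binding purified Bcl-B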
T3 sequence (Q9HD36 whole entry): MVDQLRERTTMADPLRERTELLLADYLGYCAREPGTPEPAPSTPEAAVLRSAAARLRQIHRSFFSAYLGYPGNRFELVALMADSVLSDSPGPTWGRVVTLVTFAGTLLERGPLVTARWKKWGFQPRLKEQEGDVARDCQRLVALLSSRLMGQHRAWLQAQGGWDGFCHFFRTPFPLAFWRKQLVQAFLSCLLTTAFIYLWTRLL

[12] = target: T4, Apoptotic protease-activating factor 1 (Homo sapiens, UniProt O14727); format: functional
T4 sequence (O14727 whole entry): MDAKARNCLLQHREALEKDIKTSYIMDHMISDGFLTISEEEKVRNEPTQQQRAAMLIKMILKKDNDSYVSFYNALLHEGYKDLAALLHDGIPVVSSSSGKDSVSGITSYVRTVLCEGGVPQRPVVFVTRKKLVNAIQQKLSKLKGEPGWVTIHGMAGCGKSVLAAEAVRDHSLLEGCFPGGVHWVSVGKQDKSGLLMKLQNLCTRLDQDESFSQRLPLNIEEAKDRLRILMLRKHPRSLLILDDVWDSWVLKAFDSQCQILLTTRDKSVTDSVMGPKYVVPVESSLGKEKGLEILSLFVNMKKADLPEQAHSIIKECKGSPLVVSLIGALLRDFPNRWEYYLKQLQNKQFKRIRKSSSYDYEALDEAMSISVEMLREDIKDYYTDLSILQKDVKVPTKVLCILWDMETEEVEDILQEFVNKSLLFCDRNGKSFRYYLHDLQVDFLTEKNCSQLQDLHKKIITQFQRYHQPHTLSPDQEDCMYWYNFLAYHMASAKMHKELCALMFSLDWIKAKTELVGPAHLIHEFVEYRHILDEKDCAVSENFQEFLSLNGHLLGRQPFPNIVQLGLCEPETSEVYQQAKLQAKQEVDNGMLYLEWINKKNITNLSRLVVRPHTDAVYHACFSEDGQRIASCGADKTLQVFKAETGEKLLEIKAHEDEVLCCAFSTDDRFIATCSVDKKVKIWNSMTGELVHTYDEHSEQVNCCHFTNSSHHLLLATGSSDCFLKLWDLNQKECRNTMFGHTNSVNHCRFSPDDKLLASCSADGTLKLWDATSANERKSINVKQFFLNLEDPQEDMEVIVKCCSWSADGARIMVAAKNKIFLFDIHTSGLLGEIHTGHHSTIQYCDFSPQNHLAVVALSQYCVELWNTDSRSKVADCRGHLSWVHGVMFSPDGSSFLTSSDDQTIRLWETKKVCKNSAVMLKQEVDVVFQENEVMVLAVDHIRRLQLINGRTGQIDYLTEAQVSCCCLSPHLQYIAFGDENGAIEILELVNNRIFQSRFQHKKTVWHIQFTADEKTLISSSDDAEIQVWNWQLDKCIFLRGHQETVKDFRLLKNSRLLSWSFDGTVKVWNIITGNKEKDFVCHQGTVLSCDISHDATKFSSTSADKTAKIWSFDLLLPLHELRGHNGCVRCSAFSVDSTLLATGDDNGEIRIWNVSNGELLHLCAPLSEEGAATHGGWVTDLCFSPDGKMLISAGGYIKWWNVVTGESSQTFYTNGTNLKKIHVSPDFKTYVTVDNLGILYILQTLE

cells = format: functional
[13] = target: T5, Mannose-6-phosphate isomerase (Homo sapiens, UniProt P34949); assay: MPI inhibition at elevated mannose 6-phosphate – biochemical, fluorescence intensity, high mannose 6-phosphate, primary screen (AID 1220)
T5 sequence (P34949 whole entry): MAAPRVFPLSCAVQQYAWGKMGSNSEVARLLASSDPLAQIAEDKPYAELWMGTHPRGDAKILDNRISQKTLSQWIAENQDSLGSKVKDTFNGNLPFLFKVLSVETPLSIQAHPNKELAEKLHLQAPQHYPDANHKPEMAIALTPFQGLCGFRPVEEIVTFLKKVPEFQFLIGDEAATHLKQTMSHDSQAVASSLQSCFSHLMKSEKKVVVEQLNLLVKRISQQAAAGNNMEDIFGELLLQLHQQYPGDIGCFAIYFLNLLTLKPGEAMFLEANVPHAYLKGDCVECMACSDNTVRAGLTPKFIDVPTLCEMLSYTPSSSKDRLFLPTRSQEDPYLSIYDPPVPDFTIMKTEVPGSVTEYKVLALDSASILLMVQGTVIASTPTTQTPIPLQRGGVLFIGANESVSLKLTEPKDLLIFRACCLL

Chain of Intestinal-type alkaline phosphatase (P09923 whole entry): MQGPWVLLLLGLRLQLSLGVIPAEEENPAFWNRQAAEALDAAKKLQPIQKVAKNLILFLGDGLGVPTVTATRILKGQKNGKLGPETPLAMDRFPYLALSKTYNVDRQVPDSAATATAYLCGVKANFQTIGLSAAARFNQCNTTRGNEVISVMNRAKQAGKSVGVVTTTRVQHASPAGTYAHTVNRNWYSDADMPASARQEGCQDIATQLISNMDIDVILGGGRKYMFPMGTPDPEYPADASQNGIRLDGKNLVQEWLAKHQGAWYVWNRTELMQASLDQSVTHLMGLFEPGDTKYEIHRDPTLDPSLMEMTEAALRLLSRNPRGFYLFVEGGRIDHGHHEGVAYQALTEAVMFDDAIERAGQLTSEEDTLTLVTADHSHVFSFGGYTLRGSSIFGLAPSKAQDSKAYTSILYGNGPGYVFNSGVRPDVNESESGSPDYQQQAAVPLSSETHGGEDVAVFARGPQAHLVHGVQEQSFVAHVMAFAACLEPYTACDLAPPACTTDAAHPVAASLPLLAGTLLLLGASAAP
Chain of Nucleotide-binding oligomerization domain-containing protein 2 (Q9HC29 whole entry, the tested form may be a part): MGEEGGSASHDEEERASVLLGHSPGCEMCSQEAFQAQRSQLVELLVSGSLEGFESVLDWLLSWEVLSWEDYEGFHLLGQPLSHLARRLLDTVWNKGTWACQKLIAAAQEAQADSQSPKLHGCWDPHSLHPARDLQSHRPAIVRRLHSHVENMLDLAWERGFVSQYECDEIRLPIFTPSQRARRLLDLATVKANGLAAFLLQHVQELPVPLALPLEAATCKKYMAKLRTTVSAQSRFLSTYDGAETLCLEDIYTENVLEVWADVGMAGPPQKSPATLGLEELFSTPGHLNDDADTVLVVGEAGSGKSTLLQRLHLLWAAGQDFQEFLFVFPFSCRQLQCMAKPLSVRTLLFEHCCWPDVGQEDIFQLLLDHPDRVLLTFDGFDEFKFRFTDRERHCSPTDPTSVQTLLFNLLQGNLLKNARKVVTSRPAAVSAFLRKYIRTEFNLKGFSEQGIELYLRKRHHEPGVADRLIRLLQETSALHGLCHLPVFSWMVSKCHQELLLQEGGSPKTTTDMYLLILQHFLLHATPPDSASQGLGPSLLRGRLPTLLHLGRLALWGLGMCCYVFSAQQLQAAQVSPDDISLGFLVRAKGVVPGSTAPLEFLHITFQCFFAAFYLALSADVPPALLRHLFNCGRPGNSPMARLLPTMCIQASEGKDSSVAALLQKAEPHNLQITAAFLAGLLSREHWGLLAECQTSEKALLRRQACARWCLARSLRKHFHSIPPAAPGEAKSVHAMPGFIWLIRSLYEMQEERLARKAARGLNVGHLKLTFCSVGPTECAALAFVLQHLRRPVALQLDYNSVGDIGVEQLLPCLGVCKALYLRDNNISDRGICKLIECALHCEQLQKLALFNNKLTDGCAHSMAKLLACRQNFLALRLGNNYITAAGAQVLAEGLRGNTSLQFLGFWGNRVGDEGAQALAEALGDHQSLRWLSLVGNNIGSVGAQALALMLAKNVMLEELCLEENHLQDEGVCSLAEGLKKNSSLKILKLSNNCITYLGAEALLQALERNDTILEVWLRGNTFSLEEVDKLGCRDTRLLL
Chain of Cytochrome P450 2C9 (P11712 whole entry): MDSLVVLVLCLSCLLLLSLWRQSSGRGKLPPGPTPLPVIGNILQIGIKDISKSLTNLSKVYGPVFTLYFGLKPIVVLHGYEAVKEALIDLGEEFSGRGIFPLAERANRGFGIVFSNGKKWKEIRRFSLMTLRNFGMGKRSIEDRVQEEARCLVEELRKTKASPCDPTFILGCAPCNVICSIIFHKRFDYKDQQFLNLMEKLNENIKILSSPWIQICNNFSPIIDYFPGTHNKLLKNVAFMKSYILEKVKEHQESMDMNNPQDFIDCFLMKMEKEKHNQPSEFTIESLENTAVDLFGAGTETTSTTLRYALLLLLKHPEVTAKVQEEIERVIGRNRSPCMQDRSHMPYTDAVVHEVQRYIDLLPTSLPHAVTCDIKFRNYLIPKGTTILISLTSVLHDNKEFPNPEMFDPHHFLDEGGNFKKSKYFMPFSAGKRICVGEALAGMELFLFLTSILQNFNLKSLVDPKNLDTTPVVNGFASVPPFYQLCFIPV

COc1ccc(C)cc1NC(=O)CSc1ccc(-c2ccco2)nn1
IC50 (HEK293 [1]): > 20 µM (inactive)
EC50 [2]: > 20 µM (inactive)
EC50 (HEK293 [3]): > 20 µM (inactive)
IC50 (HEK293 [4]): > 20 µM (inactive)
IC50 (HEK293 [5]): 9.49 µM (inactive)
IC50 (HEK293 [6]): > 20 µM (inactive)

O=C(CNC(=O)c1ccncc1)N/N=C/c1cc(Br)ccc1O
IC50 (Aminopeptidase N): 24.5 µM (active)

CCn1cnc2sc(C(=O)O)c(C)c2c1=O
IC50 [7]: > 100 µM (inactive)

O=C(Cc1c(F)cccc1Cl)Nc1ncc([N+](=O)[O-])s1
IC50 [8]: > 83.3 µM (inactive)
IC50 [9]: > 109 µM (inactive)
CC50 [10]: > 40 µM (active)

CC(NC(=O)CN(C)S(=O)(=O)c1c[nH]cn1)c1ccccc1 (configuration not stated)
IC50 (Aminopeptidase N): 54.6 µM (active)

O=C(O)c1ccc(-c2ccc(/C=N/Nc3ccc([N+](=O)[O-])cc3)o2)cc1
EC50 [11]: 2.11 µM (active)
IC50 (Aminopeptidase N): 43.1 µM (active)

CCOC(=O)c1c(NC(=O)Cn2cc([N+](=O)[O-])cn2)sc2c1CCC2
IC50 [7]: > 100 µM (inactive)
AC50 (Cytochrome P450 2C9): 3.55 µM (inconclusive)

c1cc2c3c(cccc3c1)NC1(CCCCCC1)N2
IC50 (Bcl-2-like protein 10): 78.4 µM (inactive)
IC50 [12]: 6.58 µM (active)

O=C(CCN1CCOCC1)c1ccc(Br)cc1
IC50 (cells): 11.8 µM (active)
CC50 [10]: > 40 µM (active)
IC50 [13]: 43 µM (active)

O=C(COC(=O)c1ccc(S(=O)(=O)NCc2ccco2)cc1)NCC1CCCCC1
IC50 (Bcl-2-like protein 10): > 100 µM (inactive)
